Test results as given in patent US7820379B2, “Process for high throughput screening of CpG-based immuno-agonist/antagonist” (Coley Pharmaceutical GmbH, priority 2000, dated 2010).

B1: IL-4: the cytokine IL-4 (protein, UniProt P05112 25-153, looked up)
Interleukin-4: HKCDITLQEIIKTLNSLTEQKTLCTELTVTDIFAASKNTTEKETFCRAATVLRQFYSHHEKDTRCLGATAQQFHRHKQLIRFLKRLDRNLWGLAGLNSCPVKEANQSTLENFLERLKTIMREKYSKCSS

Key:
murine TLR9 = target: T1, murine TLR9 (Mus musculus, UniProt Q9EQU3, L378S/Q579H/T325N/T573A/T867A); assay: IL-8 production by ELISA in 293 cells transfected with murine TLR9; format: cell-based; details: 293 cells transiently transfected with mTLR9, stimulated with 1.0 μM CpG-ODN 1668; 48 h
T1 construct: additional primers were designed for amplification of the complete mouse TLR9 cDNA; expressed in transfected cells
T1 sequence (Q9EQU3 26-1032 T325N/L378S/T573A/Q579H/T867A): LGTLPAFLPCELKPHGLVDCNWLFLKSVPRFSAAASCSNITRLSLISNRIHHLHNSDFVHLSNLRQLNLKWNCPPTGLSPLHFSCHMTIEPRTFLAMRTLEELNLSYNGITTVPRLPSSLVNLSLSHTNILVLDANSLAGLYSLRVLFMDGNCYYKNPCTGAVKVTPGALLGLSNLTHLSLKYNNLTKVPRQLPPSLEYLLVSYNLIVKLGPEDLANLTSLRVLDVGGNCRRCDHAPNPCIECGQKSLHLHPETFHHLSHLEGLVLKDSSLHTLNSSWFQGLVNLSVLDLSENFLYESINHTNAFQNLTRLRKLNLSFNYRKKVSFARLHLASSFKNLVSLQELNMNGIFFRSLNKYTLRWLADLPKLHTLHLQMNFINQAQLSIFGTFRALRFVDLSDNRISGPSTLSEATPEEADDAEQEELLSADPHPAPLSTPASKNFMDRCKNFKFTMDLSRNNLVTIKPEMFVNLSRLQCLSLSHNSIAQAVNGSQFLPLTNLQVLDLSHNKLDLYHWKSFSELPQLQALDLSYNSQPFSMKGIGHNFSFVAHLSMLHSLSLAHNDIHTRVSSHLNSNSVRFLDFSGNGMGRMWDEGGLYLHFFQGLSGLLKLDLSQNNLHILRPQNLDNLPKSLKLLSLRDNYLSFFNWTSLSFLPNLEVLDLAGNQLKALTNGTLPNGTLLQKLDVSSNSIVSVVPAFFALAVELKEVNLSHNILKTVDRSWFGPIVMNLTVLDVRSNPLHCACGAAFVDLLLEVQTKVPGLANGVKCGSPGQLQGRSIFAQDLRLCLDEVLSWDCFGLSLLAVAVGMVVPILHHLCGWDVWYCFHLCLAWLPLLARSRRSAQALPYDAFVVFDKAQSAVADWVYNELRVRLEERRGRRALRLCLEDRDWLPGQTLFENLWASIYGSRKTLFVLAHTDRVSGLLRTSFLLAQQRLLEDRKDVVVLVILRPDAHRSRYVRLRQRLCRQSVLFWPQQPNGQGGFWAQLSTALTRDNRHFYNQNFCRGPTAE
Excerpt: Human fibroblast 293 cells were transiently transfected with mTLR9 and the NF-κB-luc construct (FIG. 2). Similar data was obtained for IL-8 production (not shown). Thus expression of TLR9 (human or mouse) in 293 cells results in a gain of function for CpG-DNA stimulation similar to hTLR4 reconstitution of LPS responses.
To generate stable clones expressing human TLR9, murine TLR9, or either TLR9 with the NF-κB-luc reporter plasmid, 293 cells were transfected in 10 cm plates (2×10^6 cells/plate) with 16 μg of DNA and selected with 0.7 mg/ml G418 (PAA Laboratories GmbH, Cölbe, Germany). The clones were also screened for IL-8 production or NF-κB-luciferase activity after stimulation with ODN. Four different types of clones were generated. • 293-hTLR9-luc: expressing human TLR9 and 6-fold NF-κB-luciferase reporter • 293-mTLR9-luc: expressing murine TLR9 and 6-fold NF-κB-luciferase reporter • 293-hTLR9: expressing human TLR9 • 293-mTLR9: expressing murine TLR9
It has been hypothesized that in order for DNA to enter the endosomal/lysosomal compartment a non-CpG dependent uptake receptor may be required. 293 cells were transiently transfected with mTLR9 treated with either medium only or 1.0 μM CpG-ODN 1668 (FIG. 15). […] IL-8 production was monitored after 48 h by ELISA.

TLR9 = assay: Expression of TLR9; format: cell-based
Excerpt: The invention also embraces agents which bind selectively to certain regulatory sequences associated with the murine TLR9 nucleic acid molecules described herein. The agents include polypeptides which bind to transcription and translation regulatory sequences of murine TLR9, and antisense nucleic acids, both of which are described in greater detail below. The agents can inhibit or increase murine TLR9 expression, as well as signaling activity (antagonists and agonists, respectively). Agents which bind selectively to regulatory sequences associated with the murine TLR9 nucleic acid molecules can be identified using methods familiar to those of skill in the art. For example, a promoter region including at least 100, 200, 300, 400, 500, or more nucleotides upstream (5′) of the coding region of murine TLR9 can be identified by isolating, from appropriate genomic DNA, such nucleotide sequences using the sequences of SEQ ID NO:1 or SEQ ID NO:2 as primers or as probes, and then inserting the promoter region DNA into an appropriate expression vector so as to control the expression of TLR9 or some other reporter gene, introducing the TLR9 promoter vector into an appropriate host cell, and screening for TLR9 or reporter expression by those cells following their incubation in the presence and absence of various test agents. […]

Molecule	antagonism of activation (IL-8 production) (murine TLR9)	expression of TLR9 (TLR9)
5′-CTCCTAGTGGGGGTGTCCTAT-3′ (listed as DNA, chemistry not given here) [PZ2]	in a dose-dependent manner, was able to antagonize the activation	–
B1	–	inhibits
